Measured values: paper PMC2363166, “Water-soluble aluminium phthalocyanine–polymer conjugates for PDT: photodynamic activities and pharmacokinetics in tumour-bearing mice” (British Journal of Cancer, 1999)

Assays:
Colo-26 tumour = assay: Photodynamic therapy of the Colo-26 tumour implanted i.d. in Balb/c mice; assay type: in vivo; parameters: Oedema observed 24 h after PDT: key to the marks not given beside the values
Excerpt: (§1) Among the second-generation photosensitizers (PS) developed for the treatment of neoplastic diseases by photodynamic therapy (PDT) (Kessel, 1996; Ochsner, 1997), metallo-phthalocyanines (MePc) have been proposed (Spikes, 1986; van Lier, 1990; Rosenthal, 1991) as an alternative to Photofrin (PII), the only PS currently approved for clinical use. Their stronger absorption in the red part of the spectrum (molar extinction coefficient, […] at 675 nm), where the depth of light penetration in tissues is twice that obtained at 630 nm with PII (Svaasand, 1984), together with their chemical homogeneity and their lower potential to induce cutaneous photosensitivity (Roberts et al, 1989; Tralau et al, 1989) are major advantages over PII. Unsubstituted MePc are not soluble in physiological solvents and their in vivo administration relies upon their incorporation into carriers, such as the liposomal formulation of ZnPc (Isele et al, 1995), or their chemical conversion into water-soluble dyes by the attachment of selected substituents onto the benzene rings of the macrocycle. An inverse relationship was related between the degree of substitution by sulphonato groups of MePc and their hydrophobicity and photodynamic activities, both at the cellular level and in tumour-bearing mice (Brasseur et al, 1987, 1988; Paquette et al, 1988; Berg et al, 1989; Chan et al, 1990, 1991; Margaron et al, 1996a). The potential of the water-soluble aluminium sulphophthalocyanine (AlPcS) to generate activated oxygen species (Sharman et al, 1999) and to induce a photo- dynamic response in vivo has been widely evaluated, and a mixture of AlPcS bearing 2-4 sulphonato groups per Pc (Photosense) is used extensively and successfully in clinical PDT in Russia (Zharkova et al, 1994). […] The unsubstituted AlClPc has, however, attracted less attention even though it has been shown that this compound formulated as a Cremophor emulsion was preferentially retained by a gliosarcoma and was able to induce tumour necrosis in this model (Dereski et al, 1994). […] However, Cremophor oil is known to induce unwanted side-effects in patients (Dye and Watkins, Water-soluble aluminium phthalocyaninepolymer conjugates for PDT: photodynamic activities and pharmacokinetics in tumour-bearing mice N Brasseur, R Ouellet, C La Madeleine and JE van Lier MRC Group in the Radiation Sciences, Faculty of Medicine, Universite de Sherbrooke, Sherbrooke, Quebec, J1H 5N4, Canada Summary The potential use of unsubstituted aluminium phthalocyanine (AlClPc) as a sensitizer for photodynamic therapy (PDT) of cancer has not been fully exploited in spite of its higher efficiency as compared to the sulphonated derivatives. This is largely due to the strong hydrophobic character of AlClPc which renders the material difficult to formulate for in vivo administration. We prepared two water-soluble derivatives of AlClPc by axial coordination of polyethyleneglycol (PEG, MW 2000) or polyvinylalcohol (PVA, MW 13 000-23 000) to the central aluminium ion. Their photodynamic activities were evaluated in vitro against the EMT-6 mouse mammary tumour cells and in vivo against the EMT-6 and the colon carcinoma Colo-26 tumours implanted intradermally in Balb/c mice. Pharmacokinetics were studied in the EMT-6 tumour-bearing mice. […] All three dye preparations induced complete EMT-6 tumour regression in 75-100% of animals at a low drug dose ([…] ) following PDT (400 J cm-2 , 650-700 nm) at 24 h pi. Complete tumour regression in the Colo-26 tumour model was obtained in 30% of mice at a dose of […] . In the non-cured animals, AlPc-PVA induced the most significant tumour growth delay. […] Moreover, in the case of the polyvinylalcohol derivative, axial coordination confers advantageous pharmacokinetics to AlPc, which makes this photosensitizer a valuable, water soluble candidate drug for clinical PDT of cancer. […]

EMT-6 tumour = conditions: 0.25 μmol kg-1 i.v., PDT 24 h p.i., 400 J cm-2, ref Chan et al (1997); cited from earlier work
[1] = system: EMT-6 mouse mammary tumour cells; assay: Cellular photoinactivation, MTT cell survival after red light; assay type: cell-based; conditions: 1% FBS, red light 660-700 nm
Excerpt: Among the second-generation photosensitizers (PS) developed for the treatment of neoplastic diseases by photodynamic therapy (PDT) (Kessel, 1996; Ochsner, 1997), metallo-phthalocyanines (MePc) have been proposed (Spikes, 1986; van Lier, 1990; Rosenthal, 1991) as an alternative to Photofrin (PII), the only PS currently approved for clinical use. Their stronger absorption in the red part of the spectrum (molar extinction coefficient, […] at 675 nm), where the depth of light penetration in tissues is twice that obtained at 630 nm with PII (Svaasand, 1984), together with their chemical homogeneity and their lower potential to induce cutaneous photosensitivity (Roberts et al, 1989; Tralau et al, 1989) are major advantages over PII. […] The potential of the water-soluble aluminium sulphophthalocyanine (AlPcS) to generate activated oxygen species (Sharman et al, 1999) and to induce a photo- dynamic response in vivo has been widely evaluated, and a mixture of AlPcS bearing 2-4 sulphonato groups per Pc (Photosense) is used extensively and successfully in clinical PDT in Russia (Zharkova et al, 1994). […] Their photodynamic activities were evaluated in vitro against the EMT-6 mouse mammary tumour cells and in vivo against the EMT-6 and the colon carcinoma Colo-26 tumours implanted intradermally in Balb/c mice. […]

[2] = Biodistribution and plasma clearance after i.v. injection in EMT-6 tumour-bearing mice; assay type: in vivo
Excerpt: as §1

[3] = Colo-26 tumour, 2 μmol kg-1 i.v., PDT 24 h p.i., 400 J cm-2
[4] = 6 h after i.v. 2 μmol kg-1, n = 4
[5] = 24 h after i.v. 2 μmol kg-1, n = 4
[6] = 48 h after i.v. 2 μmol kg-1, n = 4
[7] = 168 h after i.v. 2 μmol kg-1, n = 4

Question: Which results are given for `[Cl][Al]1[n]2c3c4ccccc4c2N=C2N=C(N=c4c5ccccc5c([n]41)=NC1=NC(=N3)c3ccccc31)c1ccccc12` [AlClPc, aluminium phthalocyanine]?
Answer: damage to leg muscle (Colo-26 tumour; 2 μmol kg-1, PDT 24 h p.i.): did not induce damage to leg muscle; tumour regrowth delay relative to controls (Colo-26 tumour; Colo-26 tumour, 2 μmol kg-1, non-cured mice): 1.5 times that of the controls; Tumour response, Regression (flat and necrotic within 3-5 days after PDT) (Colo-26 tumour; Colo-26 tumour, 2 μmol kg-1 i.v., PDT 24 h p.i., 200 mW cm-2, 400 J cm-2): 80 % of mice; Oedema observed 24 h after PDT (Colo-26 tumour; [3]): ++; Tumour response, Cure (complete tumour regression at 30 days minimum) (Colo-26 tumour; [3]): 30 % of mice; Regrowth to 20 Vo (time for tumour to reach 20 times the volume at the time of PDT) (Colo-26 tumour; Colo-26 tumour, 2 μmol kg-1 i.v., PDT 24 h p.i., non-cured mice only, controls 15.0 (0.3)): 23.5 (2.1) days (s.e.m.); Oedema observed 24 h after PDT (EMT-6 tumour): +; Tumour response, Cure (complete tumour regression at 21 days) (EMT-6 tumour): 100 % of mice; Tumour response, Regression (flat and necrotic within 3-5 days after PDT) (EMT-6 tumour): 100 % of mice; light dose required to kill 90% of cells (LD90) ([1]; 1 h incubation, 10 mW cm-2, max 36 J cm-2): 13.5 J cm-2; light dose required to kill 90% of cells (LD90) ([1]; 24 h incubation, 10 mW cm-2): 4.5 J cm-2; retention by the liver ([2]; 1-week pi, i.v. 2 μmol kg-1): 73%; Tumour-to-plasma ratio [2, 4]: 0.4; Tumour-to-skin ratio [2, 4]: 3.5; Tumour-to-tumour skin ratio [2, 4]: 1.0; Tumour-to-muscle ratio [2, 5]: 16.9; Tumour-to-plasma ratio [2, 5]: >>; Tumour-to-skin ratio [2, 5]: 5.3; Tumour-to-tumour skin ratio [2, 5]: 1.0; Tumour-to-muscle ratio [2, 6]: 19.5; Tumour-to-plasma ratio [2, 6]: >>; Tumour-to-skin ratio [2, 6]: 3.3; Tumour-to-tumour skin ratio [2, 6]: 0.7; Tumour-to-muscle ratio [2, 7]: >>; Tumour-to-plasma ratio [2, 7]: >>; Tumour-to-skin ratio [2, 7]: 2.0; Tumour-to-tumour skin ratio [2, 7]: 0.9; plasma half-life ([2]; i.v. 2 μmol kg-1, EMT-6 tumour-bearing mice): 2.6 h
